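48-hour exposure; five concentrations; linearly interpolated endpoints. GI50: concentration for 50% inhibition of growth. At the TGI there is no net growth.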
Assays:
Assay in all cases: NCI-60 cell line screen, 48 h
A549 NSCLC = tested on: A549 NSCLC
M14 melanoma = tested on: M14 melanoma
NCI-H522 lung = tested on: NCI-H522 lung
UACC-257 melanoma = tested on: UACC-257 melanoma
SK-MEL-5 melanoma = tested on: SK-MEL-5 melanoma
HCC-2998 colon = tested on: HCC-2998 colon
UACC-62 melanoma = tested on: UACC-62 melanoma
SNB-75 CNS = tested on: SNB-75 CNS
HOP-92 NSCLC = tested on: HOP-92 NSCLC
OVCAR-3 ovarian = tested on: OVCAR-3 ovarian

SMILES	GI50 (A549 NSCLC) [µM]	TGI (A549 NSCLC) [µM]	GI50 (M14 melanoma) [µM]	TGI (M14 melanoma) [µM]	GI50 (NCI-H522 lung) [µM]	TGI (NCI-H522 lung) [µM]	GI50 (UACC-257 melanoma) [µM]	TGI (UACC-257 melanoma) [µM]	GI50 (SK-MEL-5 melanoma) [µM]	TGI (SK-MEL-5 melanoma) [µM]	GI50 (HCC-2998 colon) [µM]	TGI (HCC-2998 colon) [µM]	GI50 (UACC-62 melanoma) [µM]	TGI (UACC-62 melanoma) [µM]	GI50 (SNB-75 CNS) [µM]	TGI (SNB-75 CNS) [µM]	TGI (HOP-92 NSCLC) [µM]	TGI (OVCAR-3 ovarian) [µM]	GI50 (OVCAR-3 ovarian) [µM]	GI50 (HOP-92 NSCLC) [µM]
COc1ccc(S(=O)(=O)NCCCNc2nccc(-c3c(-c4ccc(F)cc4)nc4sccn34)n2)cc1	4.33	> 100	8.98	> 100	5.02	> 100	12.6	> 100	5.49	74.9	11.8	56.7	3.38	74.8	1.56	7.41				
Cc1[nH]n(C(=O)c2ccc(Cl)cc2)c(=O)c1/C=C1\C(O)=CC(=O)c2ccccc21		> 100		> 100		> 100		> 100		> 100		> 100		> 100			> 100	> 100		
Cc1nc(-c2cccnc2)sc1C(=O)/C=C/c1ccc(Cl)cc1Cl		> 100				> 100		> 100		> 100		> 100		> 100		> 100	> 100	> 100		
CC(=O)OCC1OC(OC(C)=O)C(NC#N)C(OC(C)=O)C1OC(C)=O (configuration not stated)		> 100		> 100		> 100				> 100		> 100		> 100		> 100	> 100	> 100		
COc1cccc(OC)c1/C=N\N1C(=O)c2ccccc2C1=O		> 100		58.2				> 100		> 100		91.9		> 100		98.1	> 100	44.1		
COC(=O)C1=C(C)N(NC(=O)Nc2ccccc2)C2(N)N(NC(=O)Nc3ccccc3)C(C)=C(C(=O)OC)C12C(=O)OC (configuration not stated)		> 100		> 100		> 100		> 100				> 100		> 100		> 100	> 100	> 100		
COc1ccc(-c2ccc(/C=N/n3c(COc4ccc(Cl)c(C)c4)nn(CN4CCOCC4)c3=S)o2)c([N+](=O)[O-])c1	19.3	96.8	25.7	66.6	25.5	> 100					16.5	32.5	30.8	> 100				44.8	17.3	
CN(C)C(=O)c1cc2cnc(Nc3ccc(N4CCNCC4)cn3)nc2n1C1CCCC1	12	41.6	15.7	39.1			15.7	33.4	11.6	24.5	27.8	> 100	15.4	34	10.2	22	61.6	69.2	21	0.867
COc1ccc(C[C@H](N)C(=O)N[C@@H]2[C@@H](CO)OC(n3cnc4c(N(C)C)ncnc43)[C@@H]2O)cc1 (some centres not stated)			0.647	1.4	0.126	0.493	0.321	1.08	0.287	0.914	0.651	1.31	0.404	1.06	0.143	1.23	0.51	0.535		0.12
CCCCc1c2c(nc3c1CC/C(=C\c1ccccc1)C3=O)CCCC2		28		18.9		6.37		18.3				8.34		7.04		23		10.4		
O=C(/C=C/N1CCN(c2cccc(Cl)c2)CC1)c1ccc(Cl)cc1	31.9	> 100	19.6	42.3	18.9	54.6	23.8	63.5	16.5	31.5	24.9	50.5	27.3	83.5			57.7	73.7	24.1	15.1
C=CCCC1(CCP(=O)(c2ccccc2)c2ccccc2)OCCO1		> 100		> 100		> 100		> 100		> 100		> 100		> 100		> 100		> 100		
Cc1cc2c(=O)cc(-c3ccncc3)oc2c(C(=O)O)c1C		> 100						> 100				> 100		> 100		> 100	> 100	> 100		
O=C(Nc1ccccc1)Oc1ccccc1C1CCCCC1		88.5		56.7				40.2		26.9		81.5		> 100		39.9	31.3	34.7		
CN(C)c1ccc(/C=C2\Cc3ccccc3C2=O)cc1Br		> 100		> 100		70.6		> 100		76.6		> 100		> 100		> 100		> 100		
CCOC(=O)C1C(=O)C(=O)N2CCc3c([nH]c4ccccc34)C12 (configuration not stated)		> 100		> 100		> 100				> 100		> 100		> 100			> 100	> 100		
O=NNc1nc(-c2ccccn2)nc2ccccc12		> 100		22		9.21		> 100		> 100		41		65		> 100		> 100		
CC(=O)Nc1ccc(C(=O)NN2C(=O)CSC2c2ccccc2)cc1 (configuration not stated)		> 100		> 100				> 100		> 100		> 100		> 100		> 100	> 100	> 100		
ClCc1ccc(Cn2cnc3nc(Cl)nc(Cl)c32)cc1	1.91	3.64	1.31	2.83	1.85	4.41	1.95	4.33	0.801	3.75	1.62	3.18	0.974	2.54	0.656	1.48		1.45	0.687	

Source: PubChem BioAssay (NCI)
